These results are taken from the OPERA property sets (Mansouri et al. 2018).

SMILES strings stand for the structures.

Turning to `O=C(Nc1ccc2nn(C3CCCCC3)nc2c1)c1ccccc1`, the logP was 4.45.

With `Cn1nc2ccc(NC(=O)c3ccc([N+](=O)[O-])cc3)cc2n1`, the logP came out at 2.53.

The compound `Cn1nc2ccc(NC(=O)c3ccc(Cl)cc3)cc2n1` yielded a logP of 3.13.

Consider `O=C(Nc1ccc2nn(C3CCCCC3)nc2c1)C(Cl)Cl`, for which the logP was 3.87.

Consider `COc1cc(C(=O)Nc2ccc3nn(C)nc3c2)cc(OC)c1OC`, for which the logP stood at 2.38.

The compound `Cn1nc2ccc(NC(=O)CCl)cc2n1` returned a logP of 1.22.

In the case of `O=C(Nc1ccc2nn(C3CCCCC3)nc2c1)c1ccc([N+](=O)[O-])cc1`, the logP worked out at 4.57.

`COc1cc(C(=O)Nc2ccc3nn(C4CCCCC4)nc3c2)cc(OC)c1OC` returned a logP of 4.45.

The compound `O=C(Nc1ccc2nn(C3CCCCC3)nc2c1)c1ccc(Cl)c(Cl)c1` gave a logP of 5.85.

As for `Cn1nc2ccc(NC(=O)c3ccccc3)cc2n1`, the logP stood at 2.44.

The compound `COc1ccc(C(=O)Nc2ccc3nn(C4CCCC4)nc3c2)cc1` came in with a logP of 4.03.
